Data published in patent US5455222A, “1-substituted-5-thiomethylthiocyanato-1H-tetrazoles, compositions containing them and their use as antimicrobial and marine antifouling agents” (The Dow Chemical Company, priority 1994, dated 1995).
Converted amounts (≈) assume the structure as drawn.

Experiments:
[1] = tested on: Staphylococcus aureus (Sa); assay: Minimum inhibitory concentration (MIC), bacteria in nutrient agar; format: cell-based, Staphylococcus aureus ATCC 6538; conditions: 48 hours
Experimental: (§1) The minimum inhibitory concentration (MIC) for the compounds listed in Table I is determined for 9 bacteria, using nutrient agar, and 7 yeast and fungi, using malt yeast agar. A one percent solution of the test compound is prepared in a mixture of acetone and water.
(§2) Nutrient agar is prepared at pH 6.8, representing a neutral medium, and at pH 8.2, representing an alkaline medium. The nutrient agars are prepared by adding 23 g of nutrient agar to one liter of deionized water. In addition, the alkaline medium is prepared by adjusting a 0.04M solution of N-[tris-(hydroxymethyl)methyl]glycine buffered deionized water with concentrated sodium hydroxide to a pH of 8.5.
(§3) The test tubes containing the agar are cooled in a water bath until the temperature of the agar is 48° C. Then, an appropriate amount of the one percent solution of the test compound is added (except in the controls where no compound is added) to the respective test tubes so that the final concentrations are 500, 250, 100, 50, 25, 10, 5, 2.5, 1.0 and zero parts per million of the test compound in the agar, thus having a known concentration of test compound dispersed therein. The contents of the test tubes are then transferred to respective petri plates. After drying for 24 hours, the petri plates containing nutrient agar are inoculated with bacteria and those containing malt yeast agar are inoculated with yeast and fungi.
(§4) The inoculation with bacteria is accomplished by using the following procedure. Twenty-four hour-cultures of each of the bacteria are prepared by incubating the respective bacteria in tubes containing nutrient broth for 24 hours at 30° C. in a shaker. Dilutions of each of the 24 hour-cultures are made so that nine separate suspensions (one for each of the nine test bacteria) are made, each containing 10^8 colony forming units (CFU) per mL of suspension of a particular bacteria. Aliquots of 0.3 mL of each of the bacterial suspensions are used to fill the individual wells of Steer's Replicator. For each microbial suspension, 0.3 mL was used to fill three wells (i.e., three wells of 0.3 mL each) so that for the nine different bacteria, 27 wells are filled. The Steer's Replicator is then used to inoculate both the neutral and alkaline pH nutrient agar petri plates.
(§5) The inoculated petri plates are incubated at 30° C. for 48 hours and then read to determine if the test compound which is incorporated into the agar prevented growth of the respective bacteria.
(§6) Table II lists the bacteria, yeast and fungi used in the MIC test described above along with their respective American Type Culture Collection (ATCC) identification numbers.
(§7) In Tables III and IV, the MIC values of the compounds described in Table I as compared to the MIC of a standard commercial preservative (with 1-(3-chloroallyl)-3,5,7-triaza-1-azoniaadamantane chloride as the active agent and referred to in Tables III and IV as "STANDARD I") are set forth for the bacteria organisms and yeast/fungi organisms which are listed in Table II.

[2] = tested on: Penicillium chrysogenum (Pc); assay: Minimum inhibitory concentration (MIC), yeast/fungi in malt yeast agar; format: cell-based, Penicillium chrysogenum ATCC 9480; conditions: 30° C., 72 hours for fungi
Experimental: as §1
(§8) Malt yeast agar is prepared by adding 3 g yeast extract and 45 g malt agar per liter of deionized water. The specific agar is dispensed in 30 mL aliquots into 25×200 mm test tubes, capped and autoclaved for 15 minutes at 115° C.
as §3
(§9) The inoculation with the yeast and fungi is accomplished as follows. Cultures of yeast and fungi are incubated for seven days on malt yeast agar at 30° C. These cultures are used to prepare suspensions by the following procedure. A suspension of each organism is prepared by adding 10 mL of sterile saline and 10 microliters of octylphenoxy polyethoxy ethanol to the agar slant of yeast or fungi. The sterile saline/octylphenoxy polyethoxy ethanol solution is then agitated with a sterile swab to suspend the microorganism grown on the slant. Each resulting suspension is diluted into sterile saline (1 part suspension to 9 parts sterile saline). Aliquots of these dilutions are placed in individual wells of Steer's Replicator and petri plates inoculated as previously described. The petri plates are incubated at 30° C. and read after 48 hours for yeast and 72 hours for fungi.
as §6, §7

Proteus vulgaris (Pv) = assay: Minimum inhibitory concentration (MIC), bacteria in nutrient agar; format: cell-based, Proteus vulgaris ATCC 881; conditions: 48 hours
Experimental: as §1, §2, §3, §4, §5, §6, §7

[3] = tested on: Aureobasidium pullulan (Ap); assay: Minimum inhibitory concentration (MIC), yeast/fungi in malt yeast agar; format: cell-based, Aureobasidium pullulan ATCC 16622; conditions: 30° C., read after 48 hours for yeast and 72 hours for fungi
Experimental: as §1, §8, §3, §9, §6, §7

Bacillus subtilis (Bs) = assay: Minimum inhibitory concentration (MIC), bacteria in nutrient agar; format: cell-based, Bacillus subtilis ATCC 8473; conditions: 48 hours
Experimental: as §1, §2, §3, §4, §5, §6, §7

Fusarium oxysporum (Fo) = assay: Minimum inhibitory concentration (MIC), yeast/fungi in malt yeast agar; format: cell-based, Fusarium oxysporum ATCC 48112; conditions: 30° C., 72 hours for fungi
Experimental: as §1, §8, §3, §9, §6, §7

Trichoderma viride (Tv) = assay: as above; format: cell-based, Trichoderma viride ATCC 8678; conditions: 30° C., 72 hours for fungi
Experimental: as §1, §8, §3, §9, §6, §7

[4] = tested on: Pseudomonas aeruginosa (PRD-10); assay: Minimum inhibitory concentration (MIC), bacteria in nutrient agar; format: cell-based, Pseudomonas aeruginosa ATCC 15442; conditions: 48 hours
Experimental: as §1, §2, §3, §4, §5, §6, §7

Escherichia coli (Ec) = assay: as above; format: cell-based, Escherichia coli ATCC 11229; conditions: 48 hours
Experimental: as §1, §2, §3, §4, §5, §6, §7

Candida albicans (Ca) = assay: Minimum inhibitory concentration (MIC), yeast/fungi in malt yeast agar; format: cell-based, Candida albicans ATCC 10231; conditions: 30° C., 48 hours for yeast
Experimental: as §1, §8, §3, §9, §6, §7

[5] = tested on: Salmonella choleraesuis (Sc); assay: Minimum inhibitory concentration (MIC), bacteria in nutrient agar; format: cell-based, Salmonella choleraesuis ATCC 10708; conditions: Salmonella enterica, 48 hours
Experimental: as §1, §2, §3, §4, §5, §6, §7

[6] = tested on: Klebsiella pneumoniae (Kp); assay: as above; format: cell-based, Klebsiella pneumoniae ATCC 8308; conditions: 48 hours
Experimental: as §1, §2, §3, §4, §5, §6, §7

[7] = tested on: Enterobacter aerogenes (Ea); assay: as above; format: cell-based, Enterobacter aerogenes ATCC 13048; conditions: Klebsiella aerogenes, 48 hours
Experimental: as §1, §2, §3, §4, §5, §6, §7

Aspergillus niger (An) = assay: Minimum inhibitory concentration (MIC), yeast/fungi in malt yeast agar; format: cell-based, Aspergillus niger ATCC 16404; conditions: 30° C., 72 hours for fungi
Experimental: as §1, §8, §3, §9, §6, §7

[8] = tested on: Saccharomyces cerevisiae (Sc); assay: as above; format: cell-based, Saccharomyces cerevisiae ATCC 4105; conditions: 30° C., 48 hours for yeast
Experimental: as §1, §8, §3, §9, §6, §7

Row | SMILES | MIC ([1]; nutrient agar pH 6.8, 30° C.) [µg/mL] | MIC ([1]; nutrient agar pH 8.2, 30° C.) [µg/mL] | MIC [2] [µg/mL] | MIC (Proteus vulgaris (Pv); nutrient agar pH 6.8, 30° C.) [µg/mL] | MIC (Proteus vulgaris (Pv); nutrient agar pH 8.2, 30° C.) [µg/mL] | MIC [3] [µg/mL] | MIC (Bacillus subtilis (Bs); nutrient agar pH 6.8, 30° C.) [µg/mL] | MIC (Bacillus subtilis (Bs); nutrient agar pH 8.2, 30° C.) [µg/mL] | MIC (Fusarium oxysporum (Fo)) [µg/mL] | MIC (Trichoderma viride (Tv)) [µg/mL] | MIC ([4]; nutrient agar pH 6.8, 30° C.) [µg/mL] | MIC ([4]; nutrient agar pH 8.2, 30° C.) [µg/mL] | MIC (Escherichia coli (Ec); nutrient agar pH 6.8, 30° C.) [µg/mL] | MIC (Escherichia coli (Ec); nutrient agar pH 8.2, 30° C.) [µg/mL] | MIC (Candida albicans (Ca)) [µg/mL] | MIC ([5]; nutrient agar pH 6.8, 30° C.) [µg/mL] | MIC ([5]; nutrient agar pH 8.2, 30° C.) [µg/mL] | MIC ([6]; nutrient agar pH 6.8, 30° C.) [µg/mL] | MIC ([6]; nutrient agar pH 8.2, 30° C.) [µg/mL] | MIC ([7]; nutrient agar pH 6.8, 30° C.) [µg/mL] | also measured
1 | N#CSCSc1nnnn1-c1ccc(Br)cc1 [IV, 1-(4-Bromophenyl)-5-thiomethylthiocyanato-1H-tetrazole] | 500 (≈ 1520 µM) | 500 (≈ 1520 µM) | < 10 | 500 (≈ 1520 µM) | 500 (≈ 1520 µM) | < 10 | < 10 | 25 (≈ 76.2 µM) | < 10 | 25 (≈ 76.2 µM) | 500 (≈ 1520 µM) | 500 (≈ 1520 µM) | 500 (≈ 1520 µM) | 500 (≈ 1520 µM) | 25 (≈ 76.2 µM) | 500 (≈ 1520 µM) | 500 (≈ 1520 µM) | 500 (≈ 1520 µM) | 500 (≈ 1520 µM) | 500 (≈ 1520 µM) | MIC ([7]; nutrient agar pH 8.2, 30° C.): 500 µg/mL (≈ 1520 µM); MIC (Aspergillus niger (An)): < 10 µg/mL; MIC [8]: < 10 µg/mL
2 | CC(C)(C)c1ccc(-n2nnnc2SCSC#N)cc1 [IX, 1-(tertiary-Butylphenyl)-5-thiomethylthiocyanato-1H-tetrazole] | 50 (≈ 164 µM) | 50 (≈ 164 µM) | 2.5 (≈ 8.19 µM) | 250 (≈ 819 µM) | 100 (≈ 327 µM) | 2.5 (≈ 8.19 µM) | 25 (≈ 81.9 µM) | 50 (≈ 164 µM) | 25 (≈ 81.9 µM) | 100 (≈ 327 µM) | 500 (≈ 1640 µM) | 500 (≈ 1640 µM) | 50 (≈ 164 µM) | 250 (≈ 819 µM) | 100 (≈ 327 µM) | 50 (≈ 164 µM) | 100 (≈ 327 µM) | 250 (≈ 819 µM) | 100 (≈ 327 µM) | 500 (≈ 1640 µM) | MIC ([7]; nutrient agar pH 8.2, 30° C.): 500 µg/mL (≈ 1640 µM); MIC (Aspergillus niger (An)): 5 µg/mL (≈ 16.4 µM); MIC [8]: 10 µg/mL (≈ 32.7 µM)
3 | N#CSCSc1nnnn1-c1ccc(F)cc1 [V, 1-(4-Fluorophenyl)-5-thiomethylthiocyanato-1H-tetrazole] | 25 (≈ 93.5 µM) | 50 (≈ 187 µM) | 2.5 (≈ 9.35 µM) | 50 (≈ 187 µM) | 250 (≈ 935 µM) | 2.5 (≈ 9.35 µM) | < 10 | 50 (≈ 187 µM) | 5 (≈ 18.7 µM) | 25 (≈ 93.5 µM) | 50 (≈ 187 µM) | 100 (≈ 374 µM) | 100 (≈ 374 µM) | 500 (≈ 1870 µM) | 25 (≈ 93.5 µM) | 100 (≈ 374 µM) | 250 (≈ 935 µM) | 100 (≈ 374 µM) | 250 (≈ 935 µM) | 250 (≈ 935 µM) | MIC ([7]; nutrient agar pH 8.2, 30° C.): 500 µg/mL (≈ 1870 µM); MIC (Aspergillus niger (An)): 5 µg/mL (≈ 18.7 µM); MIC [8]: 5 µg/mL (≈ 18.7 µM)
